From patent publication US20140094486A1, “SOLID STATE FORMS OF HIV INHIBITOR” (Gilead Sciences, Inc., priority 2011, published 2014)

Legend:
Format in all cases: physicochemical
[1] = solubility
[2] = intrinsic dissolution rate; details: pH 2.0 buffer
[3] = moisture sorption/desorption measurements; details: based on moisture sorption/desorption measurements
[4] = physical and chemical stability under stress conditions

solubility ([1]; pH 2, simulated gastric fluid): > 24 mg/mL | solubility ([1]; pH 4.5, aqueous buffer): > 24 mg/mL | solubility ([1]; pH 6.8, aqueous buffer): > 24 mg/mL | intrinsic dissolution rate [2]: 4528 μg/[cm^2×min] | hygroscopicity [3]: non-hygroscopic | physical and chemical stability [4]: exhibits physical and chemical stability
SMILES: Cc1nc2ccccc2c(-c2ccc3c4c(ccnc24)CCO3)c1[C@H](OC(C)(C)C)C(=O)O (atropisomer, axis not shown) [Type A]
